From patent US20220273679A1, “METHODS AND COMPOSITIONS FOR TREATING AND PREVENTING DAMAGE TO SKIN” (New York Society for the Relief of the Ruptured and …, priority 2019, published 2022)

Experiments:
WT mice = assay: UVR-induced keratinocyte apoptosis and skin injury in WT mice treated topically before UVR; type: in vivo, mouse; conditions: 4 mM topically prior to UVR, FIGS. 12B-12E
[1] = tested on: Primary murine keratinocytes; assay: Mouse keratinocyte-LC co-culture exposed to UVR (activated caspase-3+ keratinocytes); type: cell-based; conditions: keratinocytes pre-treated with 2 μM for 30 minutes before LC co-culture and UVR
Procedure: FIGS. 13A and 13B. Effect of human LCs on human keratinocytes without UVR and further characterization of in vitro LC-keratinocyte EGFR signaling (13A) Effect of human LCs on human keratinocytes without UVR. Primary human keratinocytes were co-cultured with or without human LCs and activated caspase-3+ keratinocytes were enumerated 24 hours later (n=3 human LC donors). Validation of siRNA-mediated EGFR knockdown in primary murine keratinocytes was performed. Keratinocytes were treated with control or EGFR-targeted siRNAs (#1 and #2) and EGFR expression was measured 5 days later (on the day of UVR exposure) by flow cytometry. […]
For immunofluorescence staining of cell culture experiments, polystyrene chamber slides (Lab-Tek) with cultured keratinocytes were washed with PBS, fixed with 4% paraformaldehyde for 20 minutes, permeabilized and blocked with Triton-X (0.2%) and BSA (1%), and stained as indicated. Activated caspase-3+ and total DAPI+ cells were quantified with ImageJ software by a blinded observer and the percent of activated caspase-3+ Langerin− cells (keratinocytes) and activated caspase-3+ Langerin+ cells (LCs) was calculated.
Primary mouse keratinocyte cultures were prepared from mouse tail skin as described (23). […] The co-cultures rested overnight and were then exposed to UVR and analyzed 24 hours later. […]

ADAM17 [2] = assay: Ex vivo ADAM17 activity assay by TNFR1 cleavage, sorted murine LCs; type: cell-based, mouse; conditions: 25 ng/mL, 45 minutes
Procedure: FIGS. 6A-6D. UVR directly activates LC ADAM17 and EGFR ligand release. (6A, 6B) Effect of UVR on ADAM17 activity in sorted murine (6A) and human (6B) LCs as measured by change in TNFR1 mean fluorescence intensity (MFI) 45 minutes after the indicated treatments. PMA is a positive control. (n=5-6 mice; n=4 human donors). (6C,6D) Conditioned supernatants from murine (6C) or human LCs (6D) were added to A431 EGFR indicator cells and phosphoEGFR was measured 10 minutes later by flow cytometry. Murine LC supernatants were from (6A); human LC supernatants were from cells treated similarly to (6B), except that antibody was washed out prior to UVR (see Example 8). Left: Representative histogram. Right: Quantification relative to cells treated with control WT LC supernatants (6C) or control IgG-treated LC supernatants (6D). […]
To measure ADAM17 activity, we quantified the level of cell-surface tumor necrosis factor receptor 1 (TNFR1), a substrate for ADAM17 (31). […]
Sorted mouse LCs were plated in a 96-well plate at 20,000-25,000 cells/well in RPMI 1640 supplemented with L-glutamine, penicillin/streptomycin, and HEPES buffer. The cells were treated with phorbol 12-myristate 13-acetate (PMA) (Sigma-Aldrich) at 25 ng/mL or UVR (500 J/m2) and analyzed 45 minutes later. […] ADAM17 activity is expressed as the percent change in TNFR1 mean fluorescence intensity (MFI) relative to that of untreated LCs. […]

ADAM17 [3] = conditions: mouse embryonic fibroblasts; cited from earlier work
epithelial wound healing = conditions: used at 0.1 μg/ml; cited from earlier work

C=CC(=O)Nc1ccc2ncnc(Nc3cccc(Br)c3)c2c1 [PD168393]
UVR-induced keratinocyte apoptosis and skin injury (WT mice): increased | protective effect of LCs against UVR-induced keratinocyte apoptosis [1]: abolished the protective effect of LCs

CCCCCCCCCCCCCC(=O)O[C@@H]1[C@@H](C)[C@@]2(O)[C@@H](C=C(CO)C[C@]3(O)C(=O)C(C)=C[C@@H]23)[C@@H]2C(C)(C)[C@]12OC(C)=O [PMA, phorbol 12-myristate 13-acetate]
LC cell-surface TNFR1 (ADAM17 activity) (ADAM17 [2]): reduced

Lysophosphatidic acid [LPA, reference compound]
ADAM17 activation (ADAM17 [3]): activated

TGFα: EGFR ligand
epithelial wound healing (epithelial wound healing): enhance

TNFα
ADAM17 activation (ADAM17 [3]): activated

Thrombin
ADAM17 activation (ADAM17 [3]): activated
